Laboratory results from US20210267251A1, “COMPOSITIONS AND METHODS USING A NICOTINAMIDE ADENINE DINUCLEOTIDE (NAD+) PRECURSOR AND AT LEAST ONE KETONE OR KETONE PRECURSOR” (SOCIETE DES PRODUITS NESTLE S.A., priority 2018, published 2021).

System: human iPSC-derived astrocytes
Test: Oxygen consumption (mitochondrial respiration) in human iPSC-derived astrocytes, Seahorse XF96
Assay type: cell-based
Conditions: hiPSC-derived astrocytes; NR 0.5 mM for 24 hours; ketone bodies BHB (0.5 mM or 2 mM) or BHP for 1 h in KRBH 1 mM glucose; uncoupled with FCCP 1 μM; FIG. 6
Experimental: Differentiated human iPSC astrocytes were obtained from Cellular Dynamics International (CDI, Madison, Wis., USA). The cells were thawed according to the manufacturer's instructions. iCell astrocytes were cultured in DMEM supplemented with 10% fetal calf serum and N2 complement. Oxygen consumption in human iPSC-derived astrocytes was measured in a Seahorse XF96 instrument (Seahorse Bioscience, North Billerica, Mass., USA). Astrocytes were seeded directly into Seahorse 96-well tissue culture plates (XF96 FluxPaks no. 102416-100; Seahorse Bioscience) at a density of 40,000 cells per well. Cells were incubated for 24 hours with 0.5 mM of Nicotinamide riboside chloride (NR) or fresh medium before experiment. Four days after seeding, the cells were washed twice in KRBH 1 mM glucose and incubated for 1 h with the ketone bodies BHB (racemic (D,L) BHB) or BHP (D BHP) at the concentration indicated. The cells were maintained at 37° C. during the experiment. Mitochondrial respiration rates were determined every 6 minutes. […] The oxygen consumption rate in hiPSC-derived astrocytes was measured as an indication of mitochondrial function, using a Seahorse instrument. Through addition of the uncoupling agent FCCP, uncoupled (=maximal) respiration was determined.

In the case of NC(=O)c1ccc[n+]([C@@H]2O[C@H](CO)[C@@H](O)[C@H]2O)c1 [NR, Nicotinamide riboside chloride], the “maximal (uncoupled) respiration, oxygen consumption rate” value is reported as “Neither ketone bodies alone nor NR treatment significantly increases maximal respiration”.
